Article PMC8762250, “Identification of Novel Chemical Scaffolds that Inhibit the Growth of Mycobacterium tuberculosis in Macrophages” (Frontiers in Pharmacology, 2022)
Read-outs that look alike come from different tables or passages of the source. Marks after values point to notes of the source that are not given here.

Columns and labels:
[1] = system: M. tuberculosis; assay: High content assay of intracellular M. tuberculosis growth in infected RAW264.7 macrophages; format: cell-based, Mycobacterium tuberculosis H37Rv-LP
Procedure: Compounds were obtained in 384-well plates as 10 mM DMSO stock solutions and tested as described ([Manning et al., 2017]). Briefly, assay plates were prepared in clear bottom, black 384-well plates with 30 μl cRPMI and 0.6 μl compound in columns 3–22 (final concentration of 10 μM compound, 1% DMSO). […] INH and STA were also included in dose response on each plate. RAW264.7 cells were infected with M. tuberculosis DREAM8 as described ([Manning et al., 2017]) at an MOI of 1 for 24 h and extracellular bacteria removed by washing. Cells were recovered using Accumax, harvested, washed and resuspended in serum-free RPMI; 30 μl of infected cells were dispensed into each well at 3,300 cells/well. Plates were incubated for 72 h, 10 μl of 5X SYBR Green I was added and plates were imaged with an ImageXpress Micro High Content Screening System (Molecular Devices) using a ×4 objective and FITC and Texas Red channels. MetaXpress was used to analyze images. The integrated intensity of M. tuberculosis or macrophages was calculated for each well. Growth inhibition was calculated for each test well by normalizing to the average integrated intensity of the DMSO control wells. IC50 was calculated as the compound concentration required to reduce bacterial growth by 50%. TC50 was calculated as the compound concentration required to reduce macrophage viability by 50%.

[2] = HepG2 cytotoxicity (CellTiter-Glo, 72 h); format: cell-based, human; details: human
Procedure: (§1) Cytotoxicity against HepG2 cells was measured after 72 h. Cells were seeded in 384-well plates at 1,800 cells per well. Compounds were added as a 10-point three-fold serial dilution after 24 h (final assay concentration of 1% DMSO). CellTiter-Glo® reagent (Promega) was added and relative luminescence units (RLU) measured. Data were normalized to the DMSO controls. Curves were fitted using the Levenberg–Marquardt algorithm; TC50 was calculated as the compound concentration required to reduce cell viability by 50%.
(§2) We further evaluated cytotoxicity using the HepG2 cell line cultured with either glucose or galactose in the medium (Table 2). HepG2 cells cultured with galactose rely on mitochondrial oxidative phosphorylation rather than glycolysis which increases their susceptibility to mitochondrial toxicants allowing us to identify compounds with mitochondrial toxicity ([Kamalian et al., 2015]).

[3] = system: HepG2 cells; assay: HepG2 cytotoxicity (CellTiter-Glo, 72 h); format: cell-based, human; details: for HepG2 cytotoxicity TC50 Galactose / HepG2 cytotoxicity TC50 Glucose: human, 72 h
Procedure: as §1, §2

[4] = system: M. tuberculosis; assay: Minimum inhibitory concentration in liquid medium (axenic culture); format: cell-based, Mycobacterium tuberculosis; details: for IC50: read-out: Anti-tubercular activity in axenic culture IC50
[5] = system: RAW264.7 cells; assay: Macrophage viability in the same high content assay; details: for Intracellular activity Cytotoxicity TC50 / Intracellular RAW TC50: infected RAW264.7 macrophages; for Intracellular activity Cytotoxicity TC50: 72 h; for Intracellular RAW TC50: SAR tables 4-8; for selectivity index (TC50/IC50): macrophage TC50 / intracellular IC50
[6] = Mycobacterium tuberculosis, RAW264.7, 72 h, M. tuberculosis in RAW264.7 cells, MOI 1, 72 h, read-out: Intracellular activity Anti-tubercular activity IC50
[7] = Mycobacterium tuberculosis, RAW264.7, in RAW264.7 macrophages, SAR tables 4-8, read-out: Intracellular Mtb IC50
[8] = HepG2 cytotoxicity IC50 Galactose
[9] = HepG2 cytotoxicity IC50 Glucose
[10] = Mycobacterium tuberculosis, 120 h, extracellular, 5 days, OD590
[11] = Mycobacterium tuberculosis, 120 h, extracellular, 5 days, OD590, read-out: Anti-tubercular activity in axenic culture IC90
[12] = Mycobacterium tuberculosis, axenic culture, SAR tables 4-8, read-out: Extracellular IC90
[13] = in RAW264.7 macrophages, SAR tables 4-8, read-out: Intracellular Mtb IC50
[14] = Mycobacterium tuberculosis, RAW264.7, read-out: Intracellular Mtb IC50, in RAW264.7 macrophages, SAR tables 4-8

| Structure (SMILES) | activity against intracellular M. tuberculosis [1] | IC50 [1, 6] | IC50 [1, 7] | IC50 at 72 h [2, 8] | IC50 at 72 h [2, 9] | HepG2 cytotoxicity TC50 Galactose [3] | HepG2 cytotoxicity TC50 Glucose [3] | IC50 [4, 10] | IC90 [4, 11] | IC90 [4, 12] | Intracellular activity Cytotoxicity TC50 [5] | Intracellular RAW TC50 [5] | IC50 [1, 13] | IC50 [1, 14] | selectivity index (TC50/IC50) [5] | IC50 ([4]; extracellular, 5 days, OD590) | IC50 ([1]; in RAW264.7 macrophages, SAR tables 4-8, listed as 26, read-out: Intracellular Mtb IC50) | selectivity (SI) for HepG2 ([3]; HepG2 cytotoxicity / intracellular IC50) | selectivity index (SI) ([5]; HepG2 cells and/or macrophages, cell line not specified) | IC50 ([1]; in RAW264.7 macrophages, SAR tables 4-8, listed as 27, read-out: Intracellular Mtb IC50) |
| --- | --- | --- | --- | --- | --- | --- | --- | --- | --- | --- | --- | --- | --- | --- | --- | --- | --- | --- | --- | --- |
| Cc1ccc(SCC(=O)Nc2ccc(Br)c(C)c2)cc1 [TPN-0006207] | good intracellular activity | 6.3 ± 0.3 µM | 6.3 ± 0.3 µM | > 100 µM | > 100 µM | >100 ^b µM | >100 ^b µM | > 20 µM | > 20 µM | > 20 µM | >100 ^b µM | >100 ^b µM | – | – | – | – | – | – | – | – |
| O=C(COc1ccccc1)NC12CC3CC(CC(C3)C1)C2 [TPN-0006211] | – | 7.6 ± 3.5 µM | 7.6 ± 3.5 µM | 43 ± 1 µM | 53 ± 1.5 µM | 43 ± 1 ^b µM | 53 ± 1.5 ^b µM | > 20 µM | > 20 µM | > 20 µM | 38 ± 6.0 ^b µM | 38 ± 6.0 ^b µM | – | – | – | – | – | – | – | – |
| CC(C)c1ccc(OCC(=O)Nc2nccs2)cc1 [TPN-0006217] | – | 4.9 ± 2.1 µM | – | 64 ± 1.5 µM | 91 ± 3 µM | 64 ± 1.5 ^b µM | 91 ± 3 ^b µM | > 20 µM | > 20 µM | > 20 µM | 75 ± 16 ^d µM | – | – | – | – | – | – | – | – | – |
| Nc1c(C(=O)N2CCCC2)sc2nc(-c3ccccc3)ccc12 [TPN-0073027] | – | 5.8 ± 2.1 µM | < 10 µM | 64 ± 12 µM | 72 ± 22 µM | 64 ± 10 ^e µM | 82 ± 25 ^d µM | > 20 µM | > 20 µM | > 20 µM | >100e µM | >100 ^g µM | 6.8 ± 3.3 µM | – | – | – | – | – | – | – |
| Cc1cc(C)nc(NC(=N)Nc2ccc(Br)cc2)n1 [TPN-0073061] | – | 1.3 ± 0.15 µM | – | 22 ± 3.1 µM | 212 ± 4 µM | 22 ± 3.1 ^c µM | 22 ± 4.0 ^c µM | 6.3 ± 0.15 µM | 8.2 ± 0.1 µM | 8.2 ± 0.1 µM | 18 ± 4.3 ^d µM | 18 ± 4.3 ^d µM | – | 1.3 ± 0.1 µM | 14 | – | – | – | – | – |
| CCOc1ccc(NC(=S)Nc2ccccc2)cc1 [TPN-0073062] | – | 0.39 ± 0.13 µM | – | > 100 µM | > 100 µM | >100 ^e µM | >100 ^e µM | 11 ± 5.3 µM | > 20 µM | > 20 µM | >100 ^d µM | >100 ^d µM | – | 0.4 ± 0.1 µM | > 250 | – | – | – | – | – |
| CCOc1ccc(NC(=S)Nc2ccc(C)c(C#N)c2)cc1 [TPN-0073063] | – | 0.25 ± 0.23 µM | – | 35 ± 6.6 µM | 64 ± 40 µM | 34 ± 6.5 ^e µM | 40 ± 11 ^e µM | 5 ± 1.5 µM | 9.5 ± 3.2 µM | 9.5 ± 3.2 µM | 47 ± 28 ^f µM | 47 ± 28 ^g µM | – | 0.3 ± 0.2 µM | > 150 | – | – | – | – | – |
| OCc1cn(-c2ccc(Cl)cc2)nc1-c1ccc(Cl)cc1 [TPN-0073562] | – | 2.9 ± 0.52 µM | 2.9 ± 0.5 µM | 31 ± 2.2 µM | 31 ± 2.1 µM | 31 ± 1.9 ^e µM | 31 ± 2.1 ^c µM | 12 ± 0.5 µM | 19 ± 1.5 µM | 19 ± 1.5 µM | 16 ± 11 ^c µM | 16 ± 11 ^c µM | – | – | – | – | – | – | – | – |
| OCc1cn(-c2ccc(F)cc2)nc1-c1cc(F)c(Cl)cc1Cl [TPN-0073565] | – | 7 ± 1.8 µM | 7 ± 1.8 µM | 43 ± 2.3 µM | 46 ± 2.8 µM | 43 ± 2.1 ^d µM | 46 ± 2.8 ^e µM | 18.5 µM | > 20 µM | > 20 µM | >100 ^d µM | >100 ^d µM | – | – | – | > 20 µM | – | – | – | – |
| CCCOc1ccc(C(=O)Nc2sc(C)c(C)c2C(N)=O)cc1 [TPN-0073576] | – | 1.1 ± 0.36 µM | – | 89 ± 5.5 µM | 83 ± 2.9 µM | 92 ± 7 ^c µM | 83 ± 2.9 ^c µM | > 20 µM | > 20 µM | > 20 µM | >100 ^d µM | >100 ^d µM | 1 ± 0.4 µM | – | – | – | < 5 µM | > 80 | > 10 | – |
| O=C(Nc1ccc(Cl)c(Cl)c1)c1cccs1 [TPN-0073578] | – | 1.7 ± 0.85 µM | – | 4.7 ± 0.5 µM | 3.9 ± 1.1 µM | 4.7 ± 0.54 ^c µM | 3.9 ± 1.1 ^c µM | > 20 µM | > 20 µM | > 20 µM | 11 ± 2.2 ^d µM | 11 ± 2.2 ^c µM | – | – | – | – | – | – | – | < 5 µM |
